Experimental data taken from patent US6653318B1, “5-(E)-Bromovinyl uracil analogues and related pyrimidine nucleosides as anti-viral agents and methods of use” (Yale University, priority 1999, dated 2003).

Tested on: VZV
Assay: Virus growth inhibition assay, VZV viral DNA slot-blot
Type: cell-based, Varicella-Zoster virus
Conditions: Human alphaherpesvirus 3; concentration that inhibits 50% of virus growth; viral DNA, 72-hour postinfection; read-out: IC50 VZV
Description: Virus growth inhibition assay. Confluent virus permissive cells in 12-well plates are inoculated with the virus at 30˜40 pfu/well. After one-hour adsorption at 37° C., the inoculum is replaced with the medium containing 10% of dialyzed FBS and tested compounds at various dosages. Each dosage is duplicated. The infected cells are harvested at 72-hour postinfection. For HSV virus, the plaque reduction assay is performed to measure the virus growth. […] For VZV and EBV, the infected cells are lysed by “freeze-thaw” and the lysate is treated with protease K and RNase. […] The viral DNA is detected by hybridization with ^32P-labeled DNA fragment of viral specific gene. Autoradiographic results are quantitated by Personal Densitometer SI (Molecular Dynamics., Sunnyvale, Calif.). The same membrane is stripped and rehybridized with human β-actin gene fragment. The viral DNA amount is subsequently normalized by viral DNA/human actin DNA.

Row | Compound | IC50 [µM]
1 | O=c1[nH]c(=O)n([C@@H]2CO[C@@H](CO)O2)cc1/C=C/Br [D-α-BVOddU, (2R,5S)-E-5-(2-Bromovinyl)-1-[2-(hydroxymethyl)-1,3-dioxolan-5-yl]uracil] | > 30
2 | O=c1[nH]c(=O)n([C@H]2CO[C@H](CO)O2)cc1/C=C/Br [L-α-BVOddU, (2S,5R)-E-5-(2-Bromovinyl)-1-[2-(hydroxymethyl)-1,3-dioxolan-5-yl]uracil] | > 30
3 | O=c1[nH]c(=O)n([C@H]2CO[C@H](CO)O2)cc1/C=C/Cl [L-α-ClVOddU, (2S,5R)-E-5-(2-Chlorovinyl)-1-[2-(hydroxymethyl)-1,3-dioxolan-5-yl]uracil] | > 30

Same assay, conditions: concentration that inhibits 50% of virus growth; viral DNA, 72-hour postinfection; read-out: IC50 VZV

Row | Compound | IC50 [µM]
4 | O=c1[nH]c(=O)n([C@@H]2CO[C@H](CO)O2)cc1Br [L-BrOddU, reference compound] | > 30
5 | Nc1nc(O)c2ncn(CCC(CO)CO)c2n1 [Pencyclovir, reference compound] | 0.14
6 | O=c1[nH]c(=O)n([C@@H]2CO[C@H](CO)O2)cc1I [L-IOddU, reference compound] | 17
7 | O=c1[nH]c(=O)n([C@@H]2C[C@@H](O)[C@H](CO)O2)cc1/C=C/Br [L-BVDU, E-5-(2-Bromovinyl)-2′-deoxy-L-uridine] | > 100

Tested on: HSV-1
Assay: Virus growth inhibition assay, HSV plaque reduction
Type: cell-based, Herpes Simplex virus
Conditions: Human alphaherpesvirus 1, concentration that inhibits 50% of virus growth
Description: (§1) Virus growth inhibition assay. Confluent virus permissive cells in 12-well plates are inoculated with the virus at 30˜40 pfu/well. After one-hour adsorption at 37° C., the inoculum is replaced with the medium containing 10% of dialyzed FBS and tested compounds at various dosages. Each dosage is duplicated. The infected cells are harvested at 72-hour postinfection. For HSV virus, the plaque reduction assay is performed to measure the virus growth. ID50 is designated as the dosage that inhibits 50% of plaque formation compared with untreated controls. For VZV and EBV, the infected cells are lysed by “freeze-thaw” and the lysate is treated with protease K and RNase. The DNA is then subjected to slot-blot as described previous (Yao, et al., Biochem. Pharmacol. 51: 941-947). The viral DNA is detected by hybridization with ^32P-labeled DNA fragment of viral specific gene. Autoradiographic results are quantitated by Personal Densitometer SI (Molecular Dynamics., Sunnyvale, Calif.). The same membrane is stripped and rehybridized with human β-actin gene fragment. The viral DNA amount is subsequently normalized by viral DNA/human actin DNA. The concentration of the tested compounds, which inhibit 50% of viral DNA synthesis compared to untreated control, is defined as IC50.

Row | Compound | IC50 [µM]
8 | Nc1nc2c(ncn2COCCO)c(=O)[nH]1 [Acyclovir, reference compound] | 13.6
9 | O=c1[nH]c(=O)n([C@@H]2CO[C@@H](CO)O2)cc1/C=C/Br [D-α-BVOddU, (2R,5S)-E-5-(2-Bromovinyl)-1-[2-(hydroxymethyl)-1,3-dioxolan-5-yl]uracil] | > 50
10 | O=c1[nH]c(=O)n([C@H]2CO[C@H](CO)O2)cc1/C=C/Br [L-α-BVOddU, (2S,5R)-E-5-(2-Bromovinyl)-1-[2-(hydroxymethyl)-1,3-dioxolan-5-yl]uracil] | > 50
11 | O=c1[nH]c(=O)n([C@H]2CO[C@H](CO)O2)cc1/C=C/Cl [L-α-ClVOddU, (2S,5R)-E-5-(2-Chlorovinyl)-1-[2-(hydroxymethyl)-1,3-dioxolan-5-yl]uracil] | > 50

Same assay, conditions: concentration that inhibits 50% of virus growth

Row | Compound | IC50 [µM]
12 | O=c1[nH]c(=O)n([C@@H]2CO[C@H](CO)O2)cc1Br [L-BrOddU, reference compound] | > 100
13 | Nc1nc(O)c2ncn(CCC(CO)CO)c2n1 [Pencyclovir, reference compound] | 18
14 | O=c1[nH]c(=O)n([C@@H]2CO[C@H](CO)O2)cc1I [L-IOddU, reference compound] | 70

Tested on: EBV
Assay: Anti-EBV activity, EBV DNA slot blot in H1 cells
Type: cell-based, Epstein Barr virus
Conditions: concentration that inhibits 50% of virus growth, 5 days
Description: as §1
A high yield of EBV producing cell line H1 derived from human P3HR1 cells was used in this study. Cells were cultured in RPMI medium supplemented with 10% dialyzed fetal bovine serum and 100 μg/ml Kanamycin and were grown at 37° C. in a humidified incubator containing 5% CO2.
H1 cells were maintained in logarithmic phase of growth for two days prior to the initiation of treatment. The H1 cells were seeded in 24 well plates at the density of 2×10^5 cells per well in 2 ml of fresh medium with or without drug treatment and were incubated at 37° C. for 5 days. Following the period of drug treatment the cells were pelleted and used to determine the inhibitory effect of drug on EBV DNA by slot blot assay.
A total of 4×10^5 H1 cells treated with the various nucleoside analogs (as set forth below) were lysed in 400 μl of 10 mM Tris-HCl (pH 7.5) solution by freezing and thawing 3 times. The cell lysate was treated with RNAase A (at a final concentration of 50 μg/ml) at 37° C. for 30 minutes and then with proteinase K (at a final concentration of 100 μg/ml) at 55° C. for 2 hr. The samples were denatured by adjusting the final concentration to 0.4N NaOH/10 mM EDTA at pH 8.2. After heating for 10 minutes in a water bath at 100° C., the samples were spotted onto positively charged nylon membrane using a manifold. […] The amount of EBV DNA in treated H1 cells was determined according to the ratio of EBV DNA to Alu DNA in comparison with non-treatment control H1 cells. […]

Row | Compound | IC50 [µM]
15 | O=c1[nH]c(=O)n([C@@H]2CO[C@H](CO)O2)cc1Br [L-BrOddU, reference compound] | 0.2
16 | O=c1[nH]c(=O)n([C@@H]2CO[C@H](CO)O2)cc1I [L-IOddU, reference compound] | 0.1

Tested on: not given
Assay: not given
Conditions: not given

Row | Compound | melting point [°C]
17 | O=c1[nH]c(=O)n([C@H]2CO[C@H](CO)O2)cc1/C=C/Cl [L-α-ClVOddU, (2S,5R)-E-5-(2-Chlorovinyl)-1-[2-(hydroxymethyl)-1,3-dioxolan-5-yl]uracil] | 101 to 102

Tested on: CEM cells
Assay: Cell cytotoxicity assay, cell growth
Type: cell-based
Conditions: three-day growth, 50% inhibition of cell growth
Description: (§2) Cell Cytotoxicity Assay. CEM cells are grown at 2.5×10^4 Cells per ml in RPM1 media supplemented with 20% dialyzed FBS. When cells double, they are seeded in 24-well plates at 1 ml/well. The tested drugs are added at various diluted dosage. After three-day growth at 37° C., 5% CO2, the cells are harvested and counted by using Coulter counter. Cytotoxicity IC50 is designated as the dosage that inhibits 50% of the cell growth compared to the untreated controls.

Row | Compound | IC50 [µM]
18 | O=c1[nH]c(=O)n([C@@H]2CO[C@H](CO)O2)cc1Br [L-BrOddU, reference compound] | > 100
19 | Nc1nc(O)c2ncn(CCC(CO)CO)c2n1 [Pencyclovir, reference compound] | > 100
20 | O=c1[nH]c(=O)n([C@@H]2CO[C@H](CO)O2)cc1I [L-IOddU, reference compound] | > 100
21 | O=c1[nH]c(=O)n([C@@H]2C[C@@H](O)[C@H](CO)O2)cc1/C=C/Br [L-BVDU, E-5-(2-Bromovinyl)-2′-deoxy-L-uridine] | > 100

Tested on: not listed separately
Assay: Cell cytotoxicity assay, cell growth
Type: cell-based
Conditions: human; CEM cells, three-day growth, 50% inhibition of cell growth
Description: as §2

Row | Compound | IC50 at 3 days [µM]
22 | Nc1nc2c(ncn2COCCO)c(=O)[nH]1 [Acyclovir, reference compound] | > 100
23 | O=c1[nH]c(=O)n([C@@H]2CO[C@@H](CO)O2)cc1/C=C/Br [D-α-BVOddU, (2R,5S)-E-5-(2-Bromovinyl)-1-[2-(hydroxymethyl)-1,3-dioxolan-5-yl]uracil] | > 100
24 | O=c1[nH]c(=O)n([C@H]2CO[C@H](CO)O2)cc1/C=C/Br [L-α-BVOddU, (2S,5R)-E-5-(2-Bromovinyl)-1-[2-(hydroxymethyl)-1,3-dioxolan-5-yl]uracil] | > 100
25 | O=c1[nH]c(=O)n([C@H]2CO[C@H](CO)O2)cc1/C=C/Cl [L-α-ClVOddU, (2S,5R)-E-5-(2-Chlorovinyl)-1-[2-(hydroxymethyl)-1,3-dioxolan-5-yl]uracil] | > 100

Tested on: not given
Assay: not given
Conditions: in humans; generally ranging from about 20-30 minutes; cited from earlier work

Row | Compound | half-life of FU
26 | O=c1[nH]cc(F)c(=O)[nH]1 [FU, 5-fluorouracil] | approximately 25 minutes
